The values that follow come from patent US11857552B2, “4-[[(7-aminopyrazolo[1,5-a]pyrimidin-5-yl)amino]methyl]piperidin-3-ol compounds as CDK inhibitors” (Carrick Therapeutics Limited, priority 2017, dated 2024).

The target of one series is human CDK2/cycE1 (Homo sapiens (Human), UniProt P24941). Briefly: CDK2 IC50 (ADP-Glo kinase assay). The format is biochemical. The note with it: ATP 20 μM, histone H1 substrate. On the procedure: A reaction mixture (6 μL) containing the following components was prepared: 60 mM HEPES (60 mM, pH 7.5), sodium orthovanadate (3 μM), PEG-20000 (50 μg/mL), DTT (1.2 mM), MgCl2 (3 mM), purified human CDK2/cycE1 (4 μg/mL), histone H1 (50 μg/mL), ATP (20 μM) and test compound at the appropriate concentration such that the final concentration of DMSO was 1% w/w. The reaction mixture was incubated at 30° C. for 75 min and then stopped by the addition of ADP-Glo Reagent (6 μL). The reaction was incubated at 25° C. for 1 h to deplete the remaining ATP. Subsequently, Kinase Detection Reagent (12 μL) was added and the reaction was allowed to proceed for 1 h at 25° C. before analysis by luminescence measurement using an Envision Plate Reader (Perkin Elmer).

The target of another series is human CDK7/cycH/MAT1 (Homo sapiens (Human), UniProt P50613). Briefly: CDK7 IC50 (ADP-Glo kinase assay). In kind it is biochemical. The note with it: for IC50: ATP 8 μM, CDKtide substrate; for Ratio CDK2/CDK7: CDK2 IC50 / CDK7 IC50 selectivity; for CDK2/CDK7 Selectivity: Improvement vs. REF-001: ratio of CDK2/CDK7 ratios; for CDK7 Potency: Improvement vs. REF-001: ratio of CDK7 IC50 of REF-001 to compound. The protocol: (§1) A reaction mixture (6 μL) containing the following components was prepared: 60 mM HEPES (60 mM, pH 7.5), sodium orthovanadate (3 μM), PEG-20000 (50 μg/mL), DTT (1.2 mM), MgCl2 (3 mM), MnCl2 (3 mM), purified human CDK7/cycH/MAT1 (4 μg/mL), CDKtide (10 μM), ATP (8 μM) and test compound at the appropriate concentration such that the final concentration of DMSO was 1% w/w. The reaction mixture was incubated at 30° C. for 30 min and then stopped by the addition of ADP-Glo Reagent (6 μL). The reaction was incubated at 25° C. for 1 h to deplete the remaining ATP. Subsequently, Kinase Detection Reagent (12 μL) was added and the reaction was allowed to proceed for 1 h at 25° C. before analysis by luminescence measurement using an Envision Plate Reader (Perkin Elmer).
Chain of human CDK7/cycH/MAT1 (P50613 whole entry): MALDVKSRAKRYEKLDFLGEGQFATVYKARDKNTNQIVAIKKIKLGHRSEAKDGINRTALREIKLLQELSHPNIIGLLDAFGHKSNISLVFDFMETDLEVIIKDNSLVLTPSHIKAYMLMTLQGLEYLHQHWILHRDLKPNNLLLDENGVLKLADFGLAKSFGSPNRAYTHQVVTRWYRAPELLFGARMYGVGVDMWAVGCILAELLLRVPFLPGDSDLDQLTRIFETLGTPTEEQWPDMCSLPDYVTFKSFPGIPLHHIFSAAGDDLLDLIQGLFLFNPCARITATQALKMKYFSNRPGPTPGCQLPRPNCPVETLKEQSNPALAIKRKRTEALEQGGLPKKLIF
Chain of human CDK7/cycH/MAT1 (P51946 whole entry partner): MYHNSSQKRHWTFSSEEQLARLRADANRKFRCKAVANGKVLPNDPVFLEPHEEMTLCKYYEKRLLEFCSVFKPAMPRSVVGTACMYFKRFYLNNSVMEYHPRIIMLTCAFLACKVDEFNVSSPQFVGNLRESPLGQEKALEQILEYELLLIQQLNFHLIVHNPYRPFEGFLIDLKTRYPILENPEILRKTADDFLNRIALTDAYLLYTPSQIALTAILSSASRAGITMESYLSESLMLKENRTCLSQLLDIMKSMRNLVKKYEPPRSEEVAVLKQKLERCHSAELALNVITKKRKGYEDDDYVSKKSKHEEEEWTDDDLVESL
Chain of human CDK7/cycH/MAT1 (P51948 whole entry partner): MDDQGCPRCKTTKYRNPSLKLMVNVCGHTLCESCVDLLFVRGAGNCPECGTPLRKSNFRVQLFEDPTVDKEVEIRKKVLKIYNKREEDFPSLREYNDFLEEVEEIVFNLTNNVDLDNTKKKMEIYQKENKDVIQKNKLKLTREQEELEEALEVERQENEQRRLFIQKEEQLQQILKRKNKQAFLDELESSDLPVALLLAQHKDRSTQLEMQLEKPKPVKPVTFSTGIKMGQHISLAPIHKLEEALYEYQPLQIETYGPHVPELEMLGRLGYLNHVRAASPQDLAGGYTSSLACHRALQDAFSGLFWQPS

In the next series the target is BCRP (Homo sapiens (Human), UniProt Q9UNQ0). Briefly: MDCK-BCRP Efflux Ratio. In kind it is in vitro ADME. The following applies: dog, pH 7.4, HBSS pH 7.4, 37° C. The source says: Method 6: MDCK-BCRP Efflux Ratio
Chain of BCRP (Q9UNQ0 whole entry): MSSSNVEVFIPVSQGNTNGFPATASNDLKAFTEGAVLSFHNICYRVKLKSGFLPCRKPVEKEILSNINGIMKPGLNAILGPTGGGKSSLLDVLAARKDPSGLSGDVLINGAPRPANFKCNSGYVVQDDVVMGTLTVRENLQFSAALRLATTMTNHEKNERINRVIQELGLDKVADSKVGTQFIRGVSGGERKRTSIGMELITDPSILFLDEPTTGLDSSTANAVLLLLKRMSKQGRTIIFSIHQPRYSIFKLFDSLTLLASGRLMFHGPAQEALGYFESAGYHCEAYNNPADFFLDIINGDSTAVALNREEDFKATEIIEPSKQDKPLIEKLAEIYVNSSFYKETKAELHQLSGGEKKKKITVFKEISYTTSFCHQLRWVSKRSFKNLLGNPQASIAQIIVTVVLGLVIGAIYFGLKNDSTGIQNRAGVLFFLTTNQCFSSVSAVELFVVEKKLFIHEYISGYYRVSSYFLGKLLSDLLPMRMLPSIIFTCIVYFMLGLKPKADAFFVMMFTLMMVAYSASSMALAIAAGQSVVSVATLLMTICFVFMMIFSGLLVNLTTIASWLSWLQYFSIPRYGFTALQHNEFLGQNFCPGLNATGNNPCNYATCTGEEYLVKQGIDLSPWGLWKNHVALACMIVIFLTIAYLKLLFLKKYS
Essentially the same as Method 5, but using MDCK/BCRP Ready™ cell plates (Readycell) in place of MDCK/MDR1 plates.

A further series concerns the target MDR1 (Homo sapiens (Human), UniProt P08183). Briefly: MDCK-MDR1 Efflux Ratio. The format is in vitro ADME. The note with it: dog, MDCK-MDR1, pH 7.4, HBSS pH 7.4, 37° C. On the procedure:
Method 5: MDCK-MDR1 Efflux Ratio
Materials and solutions: • MDCK/MDR1 Ready™ cell plate (Readycell). • High Glucose Cell Culture Medium (Sigma, D5671) supplemented with: 10% FBS, 1% Glutamine 200 mM, 1% Penicillin (10,000 U/mL)—Streptomycin (10 mg/mL). • HBSS Buffer (Gibco, 14065-049). • Internal standard: 0.5 μM Bupropion in acetonitrile/0.1% formic acid (aq) (1:1 v/v).
HBSS assay buffer was prepared at pH 7.4 and warmed to 37° C. The cell culture media was removed from the Readycell plate. The Basal cells were washed with HBSS buffer (3×225 μL) and the Apical cells were washed with HBSS buffer (3×75 μL). The cells were warmed to 37° C. in a humidified CO2 (5%) atmosphere and shaken at 250 rpm for 30 min. Compound and standard solutions were prepared by diluting each compound (10 μL, 1 mM in DMSO) with HBSS (990 μL). The buffer was carefully removed from the Basal cell plate, followed by the Apical cell plate. HBSS buffer (225 μL) and compound solution (250 μL) were added to the Basal cell plate. An aliquot (25 μL) of the solutions were combined with internal standard (75 μL) and refrigerated for use as the t=0 h sample. HBSS buffer (75 μL) and compound solution (100 μL) were added to the Apical cell plate. An aliquot (25 μL) was taken and processed in the same manner as for the Basal cell plate. […]

A further series deals with human CDK9/cycK (Homo sapiens (Human), UniProt P50750). Briefly: CDK9 IC50 (ADP-Glo kinase assay). In kind it is biochemical. The note with it: ATP 8 μM, CDKtide substrate. The protocol:
In addition to those mentioned above for Method 1: • Human CDK9/cycK (Promega, V4104). • CDKtide (SignalChem, C06-58).
as §1, with “mM),” for “mM), MnCl2 (3 mM),”, “human CDK9/cycK (2.5” for “human CDK7/cycH/MAT1 (4”, “CDKtide (35” for “CDKtide (10”, “for 60” for “for 30”

Series [1] can be described thus: Human Plasma Protein Binding (PPB), RED device. In kind it is in vitro ADME. The note with it: for Free Fraction: Improvement vs. REF-001: human plasma; for Human PPB / fraction unbound at 240 min, 5 µM: human plasma pH 7.4, 37° C., 240 min. The protocol: Method 4: Human Plasma Protein Binding (PPB)
Materials and solutions: • Human Plasma (Sera Labs, […]). • Bupropion hydrochloride (Sigma, B102). • DPBS (Sigma, D8537). • Formic Acid (Sigma, F0507). • RED Device Single Use (Life Technologies, 90006). • Internal standard solution preparation: A solution of bupropion hydrochloride (50 μL, 10 mM in DMSO) was combined with 0.1% formic acid (1 mL) in acetonitrile (1000 mL).
Once frozen plasma was defrosted and adjusted to pH 7.4 using 1 M lactic acid solution and a portion of this mixture (792 μL) combined with each test compound solution (8 μL, 0.5 mM in DMSO). Portions of the resultant spiked plasma (200 μL) were added to sample compartments of the RED device. DBPS (350 μL) was added to each corresponding buffer compartment. An initial sample (50 μL) was taken and then the RED plate was sealed and incubated at 37° C. for 240 min on an orbital shaker (200 rpm) in a humidified CO2 (5%) atmosphere, alongside plasma and DBPS samples. Each sample well was treated with internal standard solution (300 μL). Aliquots (50 μL) were removed from each buffer well and sample well and replaced with incubated plasma (50 μL) or incubated DPBS (50 μL) respectively. The plate was sealed and centrifuged (3500 rpm, 15 min). Aliquots of the supernatant (100 μL) were combined with water (50 μL) for analysis using a Waters TQS Mass Spectrometer.

In series [2] the test system is MCF-7 breast cancer cell line. The following applies: with 4-hydroxytamoxifen or Faslodex, ERα-positive MCF-7 cells; cited from earlier work.

The structures appear in SMILES notation.

Chain of human CDK9/cycK (P50750 whole entry): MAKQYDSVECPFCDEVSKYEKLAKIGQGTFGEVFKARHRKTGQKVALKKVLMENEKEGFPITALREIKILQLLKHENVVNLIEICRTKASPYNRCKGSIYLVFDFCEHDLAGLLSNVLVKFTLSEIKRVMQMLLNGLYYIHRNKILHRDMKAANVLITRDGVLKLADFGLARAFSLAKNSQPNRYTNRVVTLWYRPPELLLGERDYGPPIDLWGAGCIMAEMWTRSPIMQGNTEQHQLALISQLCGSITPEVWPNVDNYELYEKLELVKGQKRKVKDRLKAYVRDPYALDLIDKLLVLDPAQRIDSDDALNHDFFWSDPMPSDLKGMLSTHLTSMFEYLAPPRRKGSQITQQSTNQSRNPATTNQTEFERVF
Chain of human CDK9/cycK (O75909 whole entry partner): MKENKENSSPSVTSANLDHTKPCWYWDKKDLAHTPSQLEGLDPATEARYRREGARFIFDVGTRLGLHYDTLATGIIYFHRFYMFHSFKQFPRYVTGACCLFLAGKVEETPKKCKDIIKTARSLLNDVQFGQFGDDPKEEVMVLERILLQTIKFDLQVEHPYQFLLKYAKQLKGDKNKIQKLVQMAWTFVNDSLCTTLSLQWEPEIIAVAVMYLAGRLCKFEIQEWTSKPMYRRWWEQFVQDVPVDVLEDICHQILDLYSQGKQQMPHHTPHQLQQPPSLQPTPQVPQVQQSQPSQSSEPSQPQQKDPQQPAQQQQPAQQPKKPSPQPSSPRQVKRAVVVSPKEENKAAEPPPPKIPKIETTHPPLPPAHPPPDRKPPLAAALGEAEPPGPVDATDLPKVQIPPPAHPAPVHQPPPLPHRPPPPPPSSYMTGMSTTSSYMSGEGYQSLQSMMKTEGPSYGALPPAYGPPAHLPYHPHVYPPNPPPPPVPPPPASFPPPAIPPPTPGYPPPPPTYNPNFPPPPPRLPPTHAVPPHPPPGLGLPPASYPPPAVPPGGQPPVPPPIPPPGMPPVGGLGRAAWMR
Chain of MDR1 (P08183 whole entry): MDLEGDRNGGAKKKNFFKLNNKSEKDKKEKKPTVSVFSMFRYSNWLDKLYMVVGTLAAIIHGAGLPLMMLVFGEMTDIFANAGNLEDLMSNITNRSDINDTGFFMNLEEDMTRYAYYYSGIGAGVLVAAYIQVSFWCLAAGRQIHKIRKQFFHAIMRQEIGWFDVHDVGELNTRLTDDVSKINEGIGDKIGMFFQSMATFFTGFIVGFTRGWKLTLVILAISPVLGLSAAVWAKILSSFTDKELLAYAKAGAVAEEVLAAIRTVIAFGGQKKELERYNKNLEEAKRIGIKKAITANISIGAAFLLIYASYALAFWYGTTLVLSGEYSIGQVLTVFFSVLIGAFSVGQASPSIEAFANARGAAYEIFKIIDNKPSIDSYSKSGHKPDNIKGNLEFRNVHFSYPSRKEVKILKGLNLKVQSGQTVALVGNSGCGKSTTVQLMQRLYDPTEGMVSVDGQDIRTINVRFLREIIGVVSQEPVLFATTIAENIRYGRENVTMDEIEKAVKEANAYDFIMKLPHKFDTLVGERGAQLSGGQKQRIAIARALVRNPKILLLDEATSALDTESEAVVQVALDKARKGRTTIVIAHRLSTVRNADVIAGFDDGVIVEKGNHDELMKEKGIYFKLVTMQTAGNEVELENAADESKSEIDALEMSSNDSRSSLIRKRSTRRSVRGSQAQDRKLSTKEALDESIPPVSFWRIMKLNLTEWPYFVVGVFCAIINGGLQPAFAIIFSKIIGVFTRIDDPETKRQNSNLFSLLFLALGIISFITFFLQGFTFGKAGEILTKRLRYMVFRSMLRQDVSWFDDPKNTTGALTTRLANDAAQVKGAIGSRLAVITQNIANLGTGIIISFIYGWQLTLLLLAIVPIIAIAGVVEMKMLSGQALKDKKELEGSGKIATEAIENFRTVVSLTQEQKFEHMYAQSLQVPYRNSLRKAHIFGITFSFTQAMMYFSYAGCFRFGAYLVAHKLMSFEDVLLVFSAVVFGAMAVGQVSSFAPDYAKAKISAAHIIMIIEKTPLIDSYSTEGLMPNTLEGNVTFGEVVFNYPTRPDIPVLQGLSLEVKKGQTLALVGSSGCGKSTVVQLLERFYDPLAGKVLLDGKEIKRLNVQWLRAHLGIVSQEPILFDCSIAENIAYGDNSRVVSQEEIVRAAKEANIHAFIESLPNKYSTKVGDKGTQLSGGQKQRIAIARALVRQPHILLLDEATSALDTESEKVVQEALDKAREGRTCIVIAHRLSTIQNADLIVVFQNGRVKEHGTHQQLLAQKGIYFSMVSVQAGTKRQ

Compound `CCc1cnn2c(NCc3ccccc3F)cc(NC[C@H]3CCNC[C@@H]3O)nc12` [APPAMP-001, (3R,4R)-4-(((3-ethyl-7-((2-fluorobenzyl)amino)pyrazolo[1,5-a]pyrimidin-5-yl)amino)methyl)piperidin-3-ol] gave a half-maximal inhibitory concentration (IC50) on human CDK2/cycE1 of 640 nM. In addition, on human CDK7/cycH/MAT1, half-maximal inhibition (IC50) required 13 nM, the “Ratio CDK2/CDK7” value is 49, the “CDK2/CDK7 Selectivity: Improvement vs. REF-001” value (shortened to “CDK2/CDK7 Selectivity”) is 2.54 fold and the “CDK7 Potency: Improvement vs. REF-001” value is 2.62 fold. Besides, at BCRP, the efflux ratio at 2 h, 10 µM amounted to 5. The efflux ratio at 2 h, 10 µM on MDR1 was 2. The midpoint of inhibition against human CDK9/cycK, the IC50, lay at 200 nM. In series [1], the “Free Fraction: Improvement vs. REF-001” value was 2.14 fold; the “Human PPB” value is recorded as 85%; the fraction unbound at 240 min, 5 µM was 0.15.
Turning to `O[C@H]1CNCC[C@@H]1CNc1cc(NCc2ccccc2)n2ncc(C3CC3)c2n1` [APPAMP-002, (3R,4R)-4-(((7-(benzylamino)-3-cyclopropylpyrazolo[1,5-a]pyrimidin-5-yl)amino)methyl)piperidin-3-ol], the IC50 against human CDK2/cycE1 was determined as 770 nM. For the same compound, on human CDK7/cycH/MAT1, the concentration for half-maximal inhibition (IC50) was 33 nM, the “Ratio CDK2/CDK7” value came to 23, the “CDK2/CDK7 Selectivity” value was determined as 1.20 fold and the “CDK7 Potency: Improvement vs. REF-001” value amounted to 1.03 fold. The efflux ratio at 2 h, 10 µM on BCRP was 2. Besides, the efflux ratio at 2 h, 10 µM on MDR1 was 5.7. This compound displayed an IC50 at human CDK9/cycK of 210 nM. In series [1], the “Free Fraction: Improvement vs. REF-001” value is given as 2.43 fold; the “Human PPB” value was 83%; the free fraction (fraction unbound) at 240 min, 5 µM was 0.17.
With `CCc1cnn2c(NCc3cccc(C#N)c3)cc(NC[C@H]3CCNC[C@@H]3O)nc12` [APPAMP-003, 3-(((3-ethyl-5-((((3R,4R)-3-hydroxypiperidin-4-yl)methyl)amino)pyrazolo[1,5-a]pyrimidin-7-yl)amino)methyl)benzonitrile], half-maximal inhibition at human CDK2/cycE1 (IC50) was put at 190 nM. At human CDK7/cycH/MAT1, the IC50 is 8.9 nM, the “Ratio CDK2/CDK7” value came out at 21, the “CDK2/CDK7 Selectivity” value was found to be 1.10 fold and the “CDK7 Potency: Improvement vs. REF-001” value was found to be 3.82 fold. In addition, half-maximal inhibition on human CDK9/cycK (IC50) was put at 22 nM.
`CCc1cnn2c(NCc3cccc(C#N)c3)c(Cl)c(NC[C@H]3CCNC[C@@H]3O)nc12` [APPAMP-004, 3-(((6-chloro-3-ethyl-5-((((3R,4R)-3-hydroxypiperidin-4-yl)methyl)amino)pyrazolo[1,5-a]pyrimidin-7-yl)amino)methyl)benzonitrile] returned an IC50 against human CDK2/cycE1 of 2400 nM. On human CDK7/cycH/MAT1, the IC50 was 4.2 nM, the “Ratio CDK2/CDK7” value is 571, the “CDK2/CDK7 Selectivity” value turned out to be 29.4 fold and the “CDK7 Potency: Improvement vs. REF-001” value amounted to 8.10 fold. This compound also registered an IC50 at human CDK9/cycK of 130 nM.
In the case of `CC(C)c1cnn2c(NCc3ccccc3)cc(NC[C@H]3CCNC[C@@H]3O)nc12` [REF-001, (3R,4R)-4-(((7-(benzylamino)-3-isopropylpyrazolo[1,5-a]pyrimidin-5-yl)amino)methyl)piperidin-3-ol, reference compound], the “effect of the combination with an anti-estrogen on growth of breast cancer cells” value in series [2] is reported as “synergistic effects”. Moreover, in series [1], the “Human PPB” value was 93% and the unbound share (fraction unbound) at 240 min, 5 µM is 0.07.
